# Results taken from patent publication US9894902B2, “Herbicidal compositions comprising 4-amino-3-chloro-6-(4-chloro-2-fluoro-3-methoxyphenyl)pyridine-2-carboxylic acid or a derivative thereof and picloram or a derivative thereof” (Dow AgroSciences LLC, priority 2013, dated 2018).
# Key:
# Assay in all cases: Postemergent herbicidal activity, greenhouse, foliar-applied
# Format in all cases: in vivo
# Conditions in all cases: foliar postemergence
# [1] = tested on: ABUTH Abutilon theophrasti Medik. (velvetleaf)
# Protocol: (§1) Evaluation of Postemergent Herbicidal Activity. Seeds or nutlets of the desired test plant species were planted in Sun Gro Metro-Mix® 360 planting mixture, which typically has a pH of 6.0 to 6.8 and an organic matter content of about 30 percent, in plastic pots with a surface area of 64 square centimeters (cm^2). […] The plants were grown for 7-21 days (d) in a greenhouse with an approximate 15 hour (h) photoperiod which was maintained at about 23-29° C. during the day and 22-28° C. during the night. Nutrients and water were added on a regular basis and supplemental lighting was provided with overhead metal halide 1000-Watt lamps as necessary. The plants were employed for testing when they reached the first or second true leaf stage.
# (§2) A weighed amount, determined by the highest rate to be tested, of each test compound was placed in a 25 milliliter (mL) glass vial and was dissolved in 4 mL of a 97:3 volume per volume (v/v) mixture of acetone and dimethyl sulfoxide (DMSO) to obtain concentrated stock solutions. […] The concentrated stock solutions obtained were diluted with 20 mL of an aqueous mixture containing acetone, water, isopropyl alcohol, DMSO, Atplus 411F crop oil concentrate, and Triton® X-155 surfactant in a 48.5:39:10:1.5:1.0:0.02 v/v ratio to obtain spray solutions containing the highest application rates. Additional application rates were obtained by serial dilution of 12 mL of the high rate solution into a solution containing 2 mL of a 97:3 v/v mixture of acetone and DMSO and 10 mL of an aqueous mixture containing acetone, water, isopropyl alcohol, DMSO, Atplus 411F crop oil concentrate, and Triton X-155 surfactant in a 48.5:39:10:1.5:1.0:0.02 v/v ratio to obtain 1/2×, 1/4×, 1/8×and 1/16× rates of the high rate. Compound requirements are based upon a 12 mL application volume at a rate of 187 liters per hectare (L/ha). Formulated compounds were applied to the plant material with an overhead Mandel track sprayer equipped with 8002E nozzles calibrated to deliver 187 L/ha over an application area of 0.503 square meters (m^2) at a spray height of 18 inches ([…]) above the average plant canopy height. Control plants were sprayed in the same manner with the solvent blank.
# (§3) Treatments consisted of the methyl ester of 4-amino-3-chloro-6-(4-chloro-2-fluoro-3-methoxyphenyl)pyridine-2-carboxylic acid (Cmpd 1) as technical grade material and picloram (Tordon® 22K) alone and in combination. The form of compound of formula (I) and picloram-potassium salt were applied on an acid equivalent basis.
# (§4) The treated plants and control plants were placed in a greenhouse as described above and watered by subirrigation to prevent wash-off of the test compounds. After 14 d, the condition of the test plants as compared with that of the untreated plants was determined visually and scored on a scale of 0 to 100 percent where 0 corresponds to no injury and 100 corresponds to complete kill.
# (§5) The values reported are % control visually rated. Colby's equation was used to determine the herbicidal effects expected from the mixtures (Colby, S.R. Calculation of the synergistic and antagonistic response of herbicide combinations. Weeds 1967, 15, 20-22.).
# (§6) More specifically, the following equation was used to calculate the expected activity of mixtures containing two active ingredients, A and B: Expected=A+B−(A×B/100) • A=observed efficacy of active ingredient A at the same concentration as used in the mixture; • B=observed efficacy of active ingredient B at the same concentration as used in the mixture.
# [2] = tested on: GLXMA Glycine max (volunteer soybean)
# Protocol: as §1, §2, §3, §4, §5, §6
# [3] = tested on: CYPES Cyperus esculentus L. (yellow nutsedge)
# Protocol: as §1, §2, §3, §4, §5, §6
# [4] = tested on: STEME Stellaria media (L.) Vill. (common chickweed)
# Protocol: as §1, §2, §3, §4, §5, §6
# [5] = tested on: EPHHL Euphorbia heterophylla L. (wild poinsettia)
# Protocol: as §1, §2, §3, §4, §5, §6
# [6] = tested on: BRSNW Brassica napus (winter oilseed rape)
# Protocol: as §1, §2, §3, §4, §5, §6
# [7] = tested on: CIRAR Cirsium arvense (L.) Scop. (Canada thistle)
# Protocol: as §1, §2, §3, §4, §5, §6
# [8] = tested on: SETFA Setaria faberi Herrm. (giant foxtail)
# Protocol: as §1, §2, §3, §4, §5, §6
# [9] = tested on: AMARE Amaranthus retroflexus L. (redroot pigweed)
# Protocol: as §1, §2, §3, §4, §5, §6
# [10] = tested on: VIOTR Viola tricolor L. (wild violet)
# Protocol: as §1, §2, §3, §4, §5, §6
smiles,measurement,setting,value
"COC(=O)c1nc(-c2ccc(Cl)c(OC)c2F)cc(N)c1Cl [Cmpd I, methyl ester of 4-amino-3-chloro-6-(4-chloro-2-fluoro-3-methoxyphenyl)pyridine-2-carboxylic acid]",Visual Growth reduction (%) 14 Days After Application ABUTH obs,[1]; Cmpd I 2.5 g ae/ha alone,87%
same,Visual Growth reduction (%) 14 Days After Application ABUTH obs,[1]; Cmpd I 5 g ae/ha alone,85%
same,Visual Growth reduction (%) 14 Days After Application ABUTH obs,[1]; Cmpd I 10 g ae/ha alone,90%
same,Visual Growth reduction (%) 14 Days After Application GLXMA obs,[2]; Cmpd I 2.5 g ae/ha alone,80%
same,Visual Growth reduction (%) 14 Days After Application GLXMA obs,[2]; Cmpd I 5 g ae/ha alone,87%
same,Visual Growth reduction (%) 14 Days After Application GLXMA obs,[2]; Cmpd I 10 g ae/ha alone,100%
same,Visual Growth reduction (%) 14 Days After Application CYPES obs,[3]; Cmpd I 2.5 g ae/ha alone,20%
same,Visual Growth reduction (%) 14 Days After Application CYPES obs,[3]; Cmpd I 5 g ae/ha alone,72%
same,Visual Growth reduction (%) 14 Days After Application CYPES obs,[3]; Cmpd I 10 g ae/ha alone,96%
same,Visual Growth reduction (%) 14 Days After Application STEME obs,[4]; Cmpd I 2.5 g ae/ha alone,50%
same,Visual Growth reduction (%) 14 Days After Application STEME obs,[4]; Cmpd I 5 g ae/ha alone,57%
same,Visual Growth reduction (%) 14 Days After Application STEME obs,[4]; Cmpd I 10 g ae/ha alone,72%
same,Visual Growth reduction (%) 14 Days After Application EPHHL obs,[5]; Cmpd I 2.5 g ae/ha alone,85%
same,Visual Growth reduction (%) 14 Days After Application EPHHL obs,[5]; Cmpd I 5 g ae/ha alone,93%
same,Visual Growth reduction (%) 14 Days After Application EPHHL obs,[5]; Cmpd I 10 g ae/ha alone,100%
same,Visual Growth reduction (%) 14 Days After Application BRSNW obs,[6]; Cmpd I 2.5 g ae/ha alone,0%
same,Visual Growth reduction (%) 14 Days After Application BRSNW obs,[6]; Cmpd I 5 g ae/ha alone,0%
same,Visual Growth reduction (%) 14 Days After Application BRSNW obs,[6]; Cmpd I 10 g ae/ha alone,10%
same,Visual Growth reduction (%) 14 Days After Application CIRAR obs,[7]; Cmpd I 2.5 g ae/ha alone,47%
same,Visual Growth reduction (%) 14 Days After Application CIRAR obs,[7]; Cmpd I 5 g ae/ha alone,53%
same,Visual Growth reduction (%) 14 Days After Application CIRAR obs,[7]; Cmpd I 10 g ae/ha alone,65%
same,Visual Growth reduction (%) 14 Days After Application SETFA obs,[8]; Cmpd I 2.5 g ae/ha alone,0%
same,Visual Growth reduction (%) 14 Days After Application SETFA obs,[8]; Cmpd I 5 g ae/ha alone,5%
same,Visual Growth reduction (%) 14 Days After Application SETFA obs,[8]; Cmpd I 10 g ae/ha alone,35%
same,Visual Growth reduction (%) 14 Days After Application AMARE obs,[9]; Cmpd I 2.5 g ae/ha alone,50%
same,Visual Growth reduction (%) 14 Days After Application AMARE obs,[9]; Cmpd I 5 g ae/ha alone,58%
same,Visual Growth reduction (%) 14 Days After Application AMARE obs,[9]; Cmpd I 10 g ae/ha alone,77%
same,Visual Growth reduction (%) 14 Days After Application VIOTR obs,[10]; Cmpd I 2.5 g ae/ha alone,30%
same,Visual Growth reduction (%) 14 Days After Application VIOTR obs,[10]; Cmpd I 5 g ae/ha alone,43%
same,Visual Growth reduction (%) 14 Days After Application VIOTR obs,[10]; Cmpd I 10 g ae/ha alone,62%
"Nc1c(Cl)c(Cl)nc(C(=O)O)c1Cl [Picloram, 4-amino-3,5,6-trichloro-2-pyridinecarboxylic acid]",Visual Growth reduction (%) 14 Days After Application ABUTH obs,[1]; Picloram 12 g ae/ha alone,25%
same,Visual Growth reduction (%) 14 Days After Application ABUTH obs,[1]; Picloram 24 g ae/ha alone,15%
same,Visual Growth reduction (%) 14 Days After Application GLXMA obs,[2]; Picloram 12 g ae/ha alone,73%
same,Visual Growth reduction (%) 14 Days After Application GLXMA obs,[2]; Picloram 24 g ae/ha alone,82%
same,Visual Growth reduction (%) 14 Days After Application CYPES obs,[3]; Picloram 12 g ae/ha alone,0%
same,Visual Growth reduction (%) 14 Days After Application CYPES obs,[3]; Picloram 24 g ae/ha alone,0%
same,Visual Growth reduction (%) 14 Days After Application STEME obs,[4]; Picloram 12 g ae/ha alone,27%
same,Visual Growth reduction (%) 14 Days After Application STEME obs,[4]; Picloram 24 g ae/ha alone,17%
same,Visual Growth reduction (%) 14 Days After Application EPHHL obs,[5]; Picloram 12 g ae/ha alone,62%
same,Visual Growth reduction (%) 14 Days After Application EPHHL obs,[5]; Picloram 24 g ae/ha alone,65%
same,Visual Growth reduction (%) 14 Days After Application BRSNW obs,[6]; Picloram 12 g ae/ha alone,13%
same,Visual Growth reduction (%) 14 Days After Application BRSNW obs,[6]; Picloram 24 g ae/ha alone,20%
same,Visual Growth reduction (%) 14 Days After Application CIRAR obs,[7]; Picloram 12 g ae/ha alone,65%
same,Visual Growth reduction (%) 14 Days After Application CIRAR obs,[7]; Picloram 24 g ae/ha alone,82%
same,Visual Growth reduction (%) 14 Days After Application SETFA obs,[8]; Picloram 12 g ae/ha alone,0%
same,Visual Growth reduction (%) 14 Days After Application SETFA obs,[8]; Picloram 24 g ae/ha alone,0%
same,Visual Growth reduction (%) 14 Days After Application AMARE obs,[9]; Picloram 12 g ae/ha alone,63%
same,Visual Growth reduction (%) 14 Days After Application AMARE obs,[9]; Picloram 24 g ae/ha alone,63%
same,Visual Growth reduction (%) 14 Days After Application VIOTR obs,[10]; Picloram 12 g ae/ha alone,0%
same,Visual Growth reduction (%) 14 Days After Application VIOTR obs,[10]; Picloram 24 g ae/ha alone,3%
